Assays:
[1] = Stability in basic medium (0.1 M NaOH); format: physicochemical; conditions: for cleaved completely after: aqueous basic conditions as applied in Example H-1 (0.1 M NaOH)
Method: Stability study of the inventive saccharides is critical for the development of stable liquid Hib glycoconjugate vaccines. As a control we examined first the stability and cleavage of Hib polyribosylribitolphosphate capsular polysaccharide (CPS). Accordingly, Hib CPS was fragmented using standard procedures as described in Vaccine, 2000, 18, 1982-1993: 1 mg Hib CPS in 0.43 mL of 0.1 M NaOH, 20 h. Fragments obtained after purification (filtered through 30 kDa Amicon filters followed by desalting) were analyzed by ^1H NMR, HPLC and HRMS.
The stability of dimer 16 was further investigated under aqueous basic conditions as applied in Example H-1. From the HPLC chromatogram in FIG. 13D it was concluded that dimer 16 got cleaved completely after 4 days, while the natural Hib CPS got already cleaved completely within 20 hours.
The stability of tetramer 29 was further investigated under aqueous basic conditions as applied in Example H-1. From the HPLC chromatogram in FIG. 13A it was concluded that tetramer 29 got cleaved completely after 4 days, while the natural Hib CPS got already cleaved completely within 20 hours.

[2] = Stability in presence of aluminum hydroxide (Alhydrogel), aluminum phosphate, phosphate buffer or water, HPLC; format: physicochemical; conditions: for cleavage to smallest fragments observed after: Alhydrogel
Method: Having established the stability data of the control Hib CPS, then the stability of Hib CPS in aluminum hydroxide was investigated, where it is known to be unstable in a vaccine formulation {0.5 mg Hib CPS, 3 mL Alhydrogel® (Brentag) and 22 mL milli-Q water} at various temperatures {37° C. (A1) and rt (A3)}. At 37° C. cleavage to smallest fragments were observed after 2 days and at rt this pattern was observed after day 7 (FIG. 6). From this experiment it was confirmed that, Hib CPS decomposes to 2 and 3-O phosphate fragments in 2 to 7 days depending on temperature in Aluminum hydroxide the most common adjuvant used in commercial vaccines.
Stability studies of synthesized 2′-methoxyribosylribitolphosphate dimer 16 were conducted in presence of various adjuvants. As a first step stability of 16 was studied using Al(OH)3, AlPO4 and water at various temperatures {37° C. (A1), 2-8° C. (A2), rt (A3) and 70° C. (A4)}.
The amount of Al(OH)3 and AlPO4 used for this study was similar to the amount present in commercial Hib vaccines. Compounds 16 and 8 were used as reference since decomposition of dimer 16 should lead to monomer 8. Every 24 h 40 μL of solution was aliquoted from each vial and centrifuged for 4 min at 5000 rpm. Supernatant (25 μL) was taken for HPLC analysis. […] From this study it was clear that 2′-methoxyribosylribitol dimer 16 was stable at 37° C. (A1), 2-8° C. (A2), r.t. (A3) and at 70° C.
Stability studies of synthesized 2′-methoxyribosylribitolphosphate tetramer bearing a linker 29 were conducted in presence of various adjuvants. As a first step stability of 29 was studied using Al(OH)3, phosphate buffer (PBS) and water at various temperatures {2-8° C. (A2), and r.t. (A3)}.
The amount of Al(OH)3 used for this study was similar to the amount present in commercial Hib vaccines. Compounds 29, 16 and 8 were used as reference since decomposition of tetramer 29 should lead to dimer 16 and monomer 8. Every 24 h 40 μL of solution was aliquoted from each vial and centrifuged for 4 min at 5000 rpm. Supernatant (25 μL) was taken for HPLC analysis. […] From this study it was clear that 2′-methoxyribosylribitolphosphate tetramer 29 is stable in presence of Al(OH)3, in phosphate buffer (PBS) and in water at 2-8° C. (A2) and r.t. (A3).

[3] = tested on: anti-Hib antibodies present in human reference serum; assay: Glycan array analysis with Hib human reference serum; format: binding; conditions: for inhibition of binding by natural Hib PRP: Hib PRP inhibitor present (FIG. 17A); for binding of anti-Hib antibodies to printed saccharide: no inhibitor (FIG. 17A)
Method: (§1) Saccharides in PBS were printed on N-Hydroxy succinimide activated glass slides (CodeLink slides, Surmodics) using an S3 microarray spotter (Scienion). Slides were incubated overnight in a humidity saturated chamber, quenched for 2 h with 100 mM ethanolamine, 50 mM sodium phosphate, pH 7.5, washed with water and dried.
(§2) For incubation, slides were blocked for 1 h with 3% (w/v) BSA-PBS, washed with PBS and water, and dried by centrifugation. A 64 well incubation grid was attached. Sera were diluted in 3% BSA-PBS, 0.1% (v/v) Tween-20, incubated at 37° C. for 15 min, and centrifuged for 2 min at 3220 rpm. Serum dilutions were applied to the slide and incubated for 1 h at room temperature. Wells were washed three times with PBS+0.1% Tween-20 (PBS-T). Secondary antibodies (anti-rabbit IgG FITC, anti-rabbit IgM AlexaFluor 647, anti-human IgG-Fc AlexaFluor 488 and IgM AlexaFluor 594) were incubated on the slides for 30 min at r.t. Wells were washed twice with PBS-T, the incubation grid was removed, and the slide washed with PBS and water. After drying by centrifugation, the slide was scanned using a GenePix 4300A (Molecular Devices) microarray reader.

[4] = tested on: anti-Hib antibodies in rabbit typing serum; assay: Glycan array analysis with rabbit typing serum; format: binding; conditions: for inhibition of binding by natural Hib PRP: Hib PRP inhibitor present (FIG. 17B); for binding of anti-Hib antibodies to printed saccharide: no inhibitor (FIG. 17B)
Method: as §1, §2

[5] = tested on: antibodies raised by immunization with compound 94; assay: Glycan array: binding of printed saccharides to antibodies raised by immunization with compound 94; set-up: species or system rabbit; conditions: sera of rabbits immunized with conjugate 94 with and without Alhydrogel (FIG. 17C, D)
Method: Four groups with four rabbits per each group were immunized in a prime-boost regime with unadjuvanted conjugate 94 containing 5 μg saccharide 29 or conjugate 94 (containing 5 μg Hib saccharide 29) adjuvanted with Alhydrogel. The negative control group received PBS/Alhydrogel only. The positive control group received the approved vaccine ActHIB® (5 μg PRP, corresponding to half the human dose), a conjugate of native PRP to tetanus toxoid (TT). Preimmune serum and antiserum of bleeding day 21 (following two immunizations) were taken and analyzed on a glycan array. The ActHIB-specific serum was obtained after three administrations in contrast to two immunisations of the HIB analogues of the present invention.
as §1, §2
The primary immune response was assessed by glycan array screening of serum samples retrieved at day 0, day 21 and day 35. 2′-Methoxyribosylribitolphosphate dimer 19, 2′-methoxyribosylribitolphosphate dimer 24, 2′-Methoxyribosylribitolphosphate tetramer 29, 2′-deoxyribosylribitolphosphate tetramer 53 and 2′-dimethyl-aminocarbonylribosylribitolphosphate 62 as well as natural Hib PRP were printed on NHS ester-activated microarray slides. After immunization with conjugate 94 adjuvanted with Alhydrogel and without adjuvant, antibodies of the IgG and IgM subtypes against the Hib PRP derivatives 19, 24, 29, 53 and 62 as well as against the natural Hib PRP polysaccharide in all immunized rabbits were detected.

Compound	cleaved completely after ([1]; HPLC)	inhibition of binding by natural Hib PRP [3]	binding of anti-Hib antibodies to printed saccharide [3]	inhibition of binding by natural Hib PRP [4]	binding of anti-Hib antibodies to printed saccharide [4]	antibodies of the IgG and IgM subtypes against the saccharide after immunization with conjugate 94 [5]	also measured
2′-Methoxyribosylribitolphosphate tetramer [Compound 29]	4 days	inhibits the binding	bind	inhibits the binding	bind	detected	stability ([2]; Al(OH)3, phosphate buffer (PBS) and water, 2-8° C. (A2)): stable; decomposition after 7 days (HPLC) ([2]; Al(OH)3, phosphate buffer (PBS) and water, 2-8° C. and r.t.): no decomposition was observed; stability ([2]; Al(OH)3, phosphate buffer (PBS) and water, r.t. (A3)): stable
2′-deoxyribosylribitolphosphate tetramer [Compound 53]	–	not	bind	not	bind	detected	–
COC1C(O)[C@@H](CO)O[C@H]1OCC(O)C(O)C(O)COP(=O)(O)OC1C(OC)[C@H](OCC(O)C(O)C(O)CO)O[C@@H]1CO (stereo partly drawn) [Compound 16, 2′-methoxyribosylribitolphosphate dimer]	4 days	–	–	–	–	–	stability ([2]; Al(OH)3, AlPO4 and water, 2-8° C. (A2), 7 days): stable; stability ([2]; Al(OH)3, AlPO4 and water, 37° C. (A1), 7 days): stable; decomposition after 7 days (HPLC) ([2]; Al(OH)3, AlPO4 and water, 37° C., 2-8° C., rt and 70° C.): no decomposition was observed; stability ([2]; Al(OH)3, AlPO4 and water, 70° C., 7 days): stable; stability ([2]; Al(OH)3, AlPO4 and water, r.t. (A3), 7 days): stable
COC1C(O)[C@@H](CO)O[C@H]1OCC(O)C(O)C(O)COP(=O)(O)OC1C(OC)[C@H](OCC(O)C(O)C(O)COP(=O)(O)OCCCCCN)O[C@@H]1CO (stereo partly drawn) [Compound 19, 2′-Methoxyribosylribitolphosphate dimer]	–	inhibits the binding	bind	inhibits the binding	bind	detected	–
COC1C(OP(=O)(O)OCCCCCN)[C@@H](CO)O[C@H]1OCC(O)C(O)C(O)COP(=O)(OCc1ccccc1)OC1C(OC)[C@H](OCC(O)C(O)C(O)CO)O[C@@H]1CO (stereo partly drawn) [Compound 24, 2′-methoxyribosylribitolphosphate dimer]	–	inhibits the binding	bind	inhibits the binding	bind	detected	–
Hib polyribosylribitolphosphate capsular polysaccharide [Hib CPS, reference compound]	–	–	–	–	–	detected	cleavage products in basic medium ([1]; 0.1 M NaOH, 20 h, 1H NMR, HPLC, HRMS): cleaved to its smallest 2 and 3-0 phosphate fragments; time to complete hydrolysis / cleavage under basic conditions ([1]; 0.1 M sodium hydroxide solution): ≤ 20 h; stability in basic aqueous media or in the presence of aluminum salts ([1]; basic aqueous media, suspensions with aluminum phosphate or aluminum hydroxide): hydrolyzes within one day; cleavage to smallest fragments observed after ([2]; 37° C.): 2 days; cleavage to smallest fragments observed after ([2]; rt): 7 days

Reference: patent US11014952B2, “Stable hydrolysis-resistant synthetic polyribosylribitolphosphate derivatives as vaccines against Haemophilus influenzae type b” (MAX-PLANCK-GESELLSCHAFT ZUR FÖRDERUNG DER WISSENSCHAFTEN …, priority 2016, dated 2021)
